In patent US10093630B2, “Pyrazole compounds and methods of making and using same” (ABIDE THERAPEUTICS, INC., priority 2014, dated 2018):

Assays:
Assay in all cases: In vitro competitive activity-based protein profiling (gel-based, FP-Rh or HT-01 probe)
Type in all cases: biochemical
[1] = target: T1, PLA2G7 (Mus musculus, UniProt Q60963); settings: for inhibition at 10 µM: 10 μM inhibitor, read-out: % Inhibition at 10 μM, D = PLA2G7; for inhibition at 1 µM: 1 μM inhibitor, read-out: % Inhibition at 1 μM, D = PLA2G7; for IC50: mouse brain membrane fraction or cell lysates, 30 min preincubation at 37° C.
T1 construct: Proteomes (mouse brain membrane fraction or cell lysates); from tissue; host or cells: mouse brain membrane fraction (or cell lysates, not specified)
T1 sequence (Q60963 22-440): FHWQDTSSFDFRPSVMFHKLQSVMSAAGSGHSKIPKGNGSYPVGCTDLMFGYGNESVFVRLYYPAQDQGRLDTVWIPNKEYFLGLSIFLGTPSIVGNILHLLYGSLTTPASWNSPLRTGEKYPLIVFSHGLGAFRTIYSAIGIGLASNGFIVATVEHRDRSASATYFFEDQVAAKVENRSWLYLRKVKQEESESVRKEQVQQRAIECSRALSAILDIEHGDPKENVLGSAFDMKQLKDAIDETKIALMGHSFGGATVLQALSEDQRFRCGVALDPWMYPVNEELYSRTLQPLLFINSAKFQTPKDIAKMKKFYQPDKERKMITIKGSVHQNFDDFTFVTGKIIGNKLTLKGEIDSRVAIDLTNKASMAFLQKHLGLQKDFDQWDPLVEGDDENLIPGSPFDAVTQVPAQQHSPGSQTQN
Method in brief: (§1)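 Steps: inhibitor dilutions + proteome (1.0 mg/mL), 30 min, 37° C; add FP-Rh or HT-01 (50 μM DMSO stock), 30 min, 37° C; quench in SDS buffer; SDS-PAGE; gel imaging; band densitometry.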

[2] = target: T2, ABHD6 (Mus musculus, UniProt Q8R2Y0); settings: for inhibition at 10 µM: 10 μM inhibitor, read-out: % Inhibition at 10 μM, C = ABHD6; for inhibition at 1 µM: 1 μM inhibitor, read-out: % Inhibition at 1 μM, C = ABHD6; for IC50: mouse brain membrane fraction or cell lysates, 30 min preincubation at 37° C., read-out: Mouse (IC50 value, nM) ABHD6
T2 construct: Proteomes (mouse brain membrane fraction or cell lysates); from tissue; host or cells: mouse brain membrane fraction (or cell lysates, not specified)
T2 sequence (Q8R2Y0 1-336): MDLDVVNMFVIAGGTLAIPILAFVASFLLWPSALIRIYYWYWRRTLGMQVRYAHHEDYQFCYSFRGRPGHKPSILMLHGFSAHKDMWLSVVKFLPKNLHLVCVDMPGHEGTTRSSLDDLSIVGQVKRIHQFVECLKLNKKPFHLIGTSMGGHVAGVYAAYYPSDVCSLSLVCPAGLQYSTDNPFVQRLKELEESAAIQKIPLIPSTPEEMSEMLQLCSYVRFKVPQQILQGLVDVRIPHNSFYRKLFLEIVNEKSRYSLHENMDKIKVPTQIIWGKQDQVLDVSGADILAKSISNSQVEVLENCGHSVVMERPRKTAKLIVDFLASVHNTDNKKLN
Method in brief: as §1

[3] = target: T3, FAAH (Mus musculus, UniProt O08914); settings: for inhibition at 10 µM: 10 μM inhibitor, read-out: % Inhibition at 10 μM, B = FAAH; for inhibition at 1 µM: 1 μM inhibitor, read-out: % Inhibition at 1 μM, B = FAAH; for IC50: mouse brain membrane fraction or cell lysates, 30 min preincubation at 37° C., read-out: Mouse (IC50 value, nM) FAAH
T3 construct: Proteomes (mouse brain membrane fraction or cell lysates); from tissue; host or cells: mouse brain membrane fraction (or cell lysates, not specified)
T3 sequence (O08914 1-579): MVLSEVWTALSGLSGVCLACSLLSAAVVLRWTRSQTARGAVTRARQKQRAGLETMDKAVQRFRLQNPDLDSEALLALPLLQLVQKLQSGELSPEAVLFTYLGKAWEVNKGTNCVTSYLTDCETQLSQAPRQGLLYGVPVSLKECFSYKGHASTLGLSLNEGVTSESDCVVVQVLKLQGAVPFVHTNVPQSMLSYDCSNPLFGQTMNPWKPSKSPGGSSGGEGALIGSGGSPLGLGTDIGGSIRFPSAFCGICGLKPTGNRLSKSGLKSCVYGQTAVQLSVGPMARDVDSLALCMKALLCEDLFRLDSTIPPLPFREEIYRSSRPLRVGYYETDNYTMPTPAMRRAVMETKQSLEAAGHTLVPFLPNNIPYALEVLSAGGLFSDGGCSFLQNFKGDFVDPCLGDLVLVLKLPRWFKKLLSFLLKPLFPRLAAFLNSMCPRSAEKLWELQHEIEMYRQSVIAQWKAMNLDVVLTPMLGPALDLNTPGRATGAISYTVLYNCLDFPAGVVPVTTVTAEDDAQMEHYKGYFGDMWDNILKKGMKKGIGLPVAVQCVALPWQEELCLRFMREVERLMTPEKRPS
Method in brief: as §1

[4] = target: T4, MAGL (Mus musculus, UniProt O35678); settings: for inhibition at 10 µM: 10 μM inhibitor; for inhibition at 1 µM: 1 μM inhibitor; for IC50: mouse brain membrane fraction or cell lysates, 30 min preincubation at 37° C., read-out: Mouse (IC50 value, nM) MAGL
T4 construct: Proteomes (mouse brain membrane fraction or cell lysates); from tissue; host or cells: mouse brain membrane fraction (or cell lysates, not specified)
T4 sequence (O35678 1-303): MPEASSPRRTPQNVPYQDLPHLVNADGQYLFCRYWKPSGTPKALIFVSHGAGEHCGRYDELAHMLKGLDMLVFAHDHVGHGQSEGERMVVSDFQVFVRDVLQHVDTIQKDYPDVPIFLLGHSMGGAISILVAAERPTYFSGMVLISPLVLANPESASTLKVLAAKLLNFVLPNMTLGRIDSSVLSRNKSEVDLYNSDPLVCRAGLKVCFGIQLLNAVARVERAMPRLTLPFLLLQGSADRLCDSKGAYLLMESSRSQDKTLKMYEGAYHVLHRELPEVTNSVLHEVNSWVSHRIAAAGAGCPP
Method in brief: as §1

Compound | inhibition at 10 µM [1] | inhibition at 10 µM [2] | inhibition at 10 µM [3] | inhibition at 10 µM [4] | inhibition at 1 µM [1] | inhibition at 1 µM [2] | inhibition at 1 µM [3] | inhibition at 1 µM [4] | IC50 [1] | IC50 [2] | IC50 [3] | IC50 [4]
Cc1cnn(C(=O)N2CCCN(C)CC2)c1 [Example 167, (4-Methyl-1,4-diazepan-1-yl)(4-methyl-1H-pyrazol-1-yl)methanone] | < 25% | < 25% | < 25% | < 25% |  |  |  |  |  |  |  | 
Cc1cnn(C(=O)N2CCCN(Cc3ccccc3)CC2)c1 [Example 168, (4-Benzyl-1,4-diazepan-1-yl)(4-methyl-1H-pyrazol-1-yl)methanone] | < 25% | < 25% | < 25% | < 25% |  |  |  |  |  |  |  | 
Cc1cnn(C(=O)N2CCCN(C(=O)c3ccccc3)CC2)c1 [Example 169, (4-Benzoyl-1,4-diazepan-1-yl)(4-methyl-1H-pyrazol-1-yl)methanone] | < 25% | 25 to 75% | < 25% | 25 to 75% |  |  |  |  |  |  |  | 
CC(=O)N(C)CCN(C)C(=O)n1cc(C)cn1 [Example 170, N,4-Dimethyl-N-(2-(N-methylacetamido)ethyl)-1H-pyrazole-1-carboxamide] | < 25% | < 25% | < 25% | < 25% |  |  |  |  |  |  |  | 
Cc1cnn(C(=O)N(C)CCN(C)Cc2ccccc2)c1 [Example 171, N-(2-(Benzyl(methyl)amino)ethyl)-N,4-dimethyl-1H-pyrazole-1-carboxamide] | < 25% | < 25% | < 25% | < 25% |  |  |  |  |  |  |  | 
Cc1cnn(C(=O)N(C)CCN(C)C(=O)c2ccccc2)c1 [Example 172, N,4-Dimethyl-N-(2-(N-methylbenzamido)ethyl)-1H-pyrazole-1-carboxamide] | < 25% | < 25% | < 25% | < 25% |  |  |  |  |  |  |  | 
CC(=O)N1CCN(C(=O)n2cc(C#N)cn2)CC1 [Example 173, 1-(4-Acetylpiperazine-1-carbonyl)-1H-pyrazole-4-carbonitrile] | > 75% | 25 to 75% | < 25% | 25 to 75% | > 75% | < 25% | < 25% | < 25% |  |  |  | 
CS(=O)(=O)N1CCN(C(=O)n2cc(C#N)cn2)CC1 [Example 174, 1-(4-(Methylsulfonyl)piperazine-1-carbonyl)-1H-pyrazole-4-carbonitrile] | > 75% | > 75% | 25 to 75% | 25 to 75% | > 75% | > 75% | < 25% | < 25% |  |  |  | 
CN1CCN(C(=O)n2cc(C#N)cn2)CC1 [Example 175, 1-(4-Methylpiperazine-1-carbonyl)-1H-pyrazole-4-carbonitrile] | > 75% | > 75% | > 75% | > 75% | < 25% | > 75% | 25 to 75% | 25 to 75% |  |  |  | 
N#Cc1cnn(C(=O)N2CCN(C(=O)c3ccccc3)CC2)c1 [Example 176, 1-(4-Benzoylpiperazine-1-carbonyl)-1H-pyrazole-4-carbonitrile] | > 75% | > 75% | 25 to 75% | > 75% | > 75% | < 25% | < 25% | > 75% |  |  |  | 
CC(=O)N1CCCN(C(=O)n2cc(C#N)cn2)CC1 [Example 177, 1-(4-Acetyl-1,4-diazepane-1-carbonyl)-1H-pyrazole-4-carbonitrile] | > 75% | > 75% | > 75% | < 25% | < 25% | < 25% | < 25% | < 25% |  |  |  | 

Continued, values first:

inhibition at 10 µM [1] | inhibition at 10 µM [2] | inhibition at 10 µM [3] | inhibition at 10 µM [4] | inhibition at 1 µM [1] | inhibition at 1 µM [2] | inhibition at 1 µM [3] | inhibition at 1 µM [4] | IC50 [1] | IC50 [2] | IC50 [3] | IC50 [4] | Compound
25 to 75% | > 75% | > 75% | > 75% | < 25% | < 25% | < 25% | < 25% |  |  |  |  | CS(=O)(=O)N1CCCN(C(=O)n2cc(C#N)cn2)CC1 [Example 178, 1-(4-(methylsulfonyl)-1,4-diazepane-1-carbonyl)-1H-pyrazole-4-carbonitrile]
> 75% | > 75% | > 75% | > 75% | < 25% | > 75% | > 75% | > 75% | > 1000 nM | > 1000 nM | < 100 nM | > 1000 nM | N#Cc1cnn(C(=O)N2CCCN(Cc3ccccc3)CC2)c1 [Example 179, 1-(4-Benzyl-1,4-diazepane-1-carbonyl)-1H-pyrazole-4-carbonitrile]
> 75% | > 75% | > 75% | > 75% | < 25% | > 75% | > 75% | > 75% | > 1000 nM | > 1000 nM | 100 to 1000 nM | 100 to 1000 nM | N#Cc1cnn(C(=O)N2CCCN(C(=O)c3ccccc3)CC2)c1 [Example 180, 1-(4-Benzoyl-1,4-diazepane-1-carbonyl)-1H-pyrazole-4-carbonitrile]
> 75% | > 75% | > 75% | < 25% | < 25% | < 25% | < 25% | < 25% |  |  |  |  | CC(=O)N(C)CCN(C)C(=O)n1cc(C#N)cn1 [Example 181, 4-Cyano-N-methyl-N-(2-(N-methylacetamido)ethyl)-1H-pyrazole-1-carboxamide]
> 75% | > 75% | > 75% | > 75% | < 25% | < 25% | > 75% | < 25% |  |  |  |  | CN(CCN(C)C(=O)n1cc(C#N)cn1)C(=O)c1ccccc1 [Example 182, 4-Cyano-N-methyl-N-(2-(N-methylbenzamido)ethyl)-1H-pyrazole-1-carboxamide]
> 75% | < 25% | < 25% | < 25% | < 25% | < 25% | < 25% | < 25% |  |  |  |  | CC(=O)N1CCN(C(=O)n2cc(Cl)cn2)CC1 [Example 183, 1-(4-(4-Chloro-1H-pyrazole-1-carbonyl)piperazin-1-yl)ethanone]
